For the experiment, the system named is CT26 colon tumor. The experiment in a line: Anti-cancer activity in CT26 tumor-bearing BALB/c mice. In kind it is in vivo, mouse. Conditions: anti-PD-1 10 mg/kg, chidamide 50 mg/kg, metformin 100 mg/kg.

Molecules are shown by their SMILES.

Experimental: Animal research was approved and overseen by The Taipei Medical University Institutional Animal Care and Use Committee (TMU IACUC). Six- to eight-wk-old male BALB/C mice (BioLASCO Taiwan) were used for all animal experiments. JC (1×10^7), or CT26 (5×10^6˜1×10^7) cancer cells were inoculated by s.c. into the right flank of each mouse. Tumors were allowed to grow for 11 d (tumor size about 200-300 mm^3) before randomization and treatment. CT26-bearing and JC-bearing mice were given 10 or 2.5 mg/kg of anti-IgG, anti-PD-1 and/or anti-PD-L1 and anti-CTLA-4 (2.5 mg/kg) antibodies i.p. on days 11, 14, 17, 20, 23, and 26 post-tumor implantation, and all antibodies were diluted to appropriate concentrations in 100 μL of sterile PBS (pH 7.4) (Invitrogen Life Technologies). Celecoxib, chidamide, metformin, mocetinostat, entinostat, aspirin, and ibuprofen treatments were administrated orally on day 11 post-tumor implantation. Daily treatment with celecoxib (12.5, 25.0, and 50 mg/kg) or metformin (100 or 200 mg/kg) was performed from days 11 to 26. Chidamide was administered to treat tumor bearing mice at doses of 6.25, 12.5, 25, and 50 mg/kg or as a single dose. Chidamide was orally administered daily from days 11 to 26. Entinostat was orally administered at a dose of 20 mg/kg every two days from days 11 to 25. Mocetinostat was orally administered at a dose of 30 mg/kg daily treatment from days 11 to 26. Aspirin and ibuprofen was orally administered at a dose of 50 mg/kg daily treatment from days 11 to 26. The anti-cancer activity was measured from the start of the treatment of tumor growth until the tumor volume reached 3,000 mm^3. Tumor volume was calculated as length×width^2×0.5.
To understand the anti-cancer activity of anti-PD-1 antibody on the CT-26 colon cancer cell -bearing BALB/c mice, the anti-PD-1 antibody was administered into CT26-bearing mice at 10 mg/kg of anti-PD-1 and/or anti-IgG antibodies i.p. on days 11, 14, 17, 20, 23, and 26 of post tumor implantation. […] The response rate was evaluated by several assays.

Turning to `CN(C)C(=N)N=C(N)N` [metformin], under “FIG. 2A/2B”, the “tumor growth inhibition / anti-cancer activity” value was “markedly inhibited”. Where the note is “FIG. 2B, entinostat 20 mg/kg”, the “mice with PD” value is “five” and the “mice with SD” value is “one”.

Values taken from US11840570B2, “Pharmaceutical combination and method for regulation of tumor microenvironment and immunotherapy” (Great Novel Therapeutics Biotech & Medicals Corporation, priority 2018, dated 2023).
